# Measurements reported in patent publication US12370193B2, “Method of inhibiting TREM-1” (UNIVERSITY OF FLORIDA RESEARCH FOUNDATION, INCORPORATED, priority 2019, dated 2025).
# pEC50, pIC50: −log10 of the molar value.
# Assays:
# TH17 cells = conditions: Chang et al. study; cited from earlier work
# [1] = tested on: collagen-induced arthritis; conditions: Chang et al. (2014); cited from earlier work
# [2] = tested on: collagen-induced arthritis; experiment: Collagen-induced arthritis (CIA) mouse model; conditions: for enlargement of the liver: CIA mice, 20 mg/kg
# Method: Clinical score was monitored every day after boosting during 18 days. […] The dosage of all compounds was identical in each group.
# Briefly, DBA/1J mice were injected with chicken type II collagen on day 1 and then each animal received a boost injection of collagen on Day 21. Compound treatment, initiated on day 3-post boost injection, was administered intraperitoneally at 20 mg/kg twice-a-day for a total of 16 days. […] Mice: All mice were maintained in a specific pathogen-free environment in accordance with institutional protocol. […] Female DBA/1J mice were purchased from Taconic. CIA was induced in 8 weeks as previously described^40.
# RORα = experiment: Gal4-RORα co-transfection promoter-reporter assay; assay type: cell-based; conditions: Gal4 assay format
# Method: (§1) Reporter gene assays: Twenty-four hours before transfection, HEK293T cells were plated in 96-well plates at a density of 15×10^3 cells per well. UAS:luciferase reporter and Ga14-RORa, Gal4-RORb, Gal4-RORγ, Gal4-LXRα, or Gal4 PPARγ DNA co-transfections were performed using X-tremeGENE 9 (Roche). Twenty-four hours after transfection, the cells were treated with vehicle or compound. Twenty-four hours after treatment, the luciferase activity was measured using the Dual-Glo luciferase assay system (Promega). Results were analyzed using GraphPad Prism software.
# EL4 cells = experiment: RORγ target gene expression in PMA/ionomycin stimulated EL4 cells; assay type: cell-based; conditions: PMA and ionomycin, compound at 10 μM
# Source text: FIG. 1D is a graph showing PPARγ target genes (aP2 and CD36) expression in OP9 cells with and without MDI (IBMX, dexamethasone, insulin) treatment. […] Specific residues driving the interaction labelled and shown as sticks as well. […] Quantitative RT-PCR: Total RNA was extracted from EL4 or RAW264.7 cells using RNeasy Plus Micro Kit (Qiagen) and the RNA was reverse transcribed using the ABI reverse transcription kit (Applied Biosystems/Thermo Fisher Scientific, Waltham MA). Quantitative PCR was performed with a 7900HT Fast Real Time PCR System (Applied Biosystems) using SYBR green (Roche).
# TREM-1 [3] = experiment: TREM-1 gene expression in LPS-stimulated RAW264.7 cells (RNA sequencing, qPCR); assay type: cell-based, mouse; conditions: 26 hr exposure
# Method: (§2) FIG. 2B are graphs showing TREM-1 gene expression by q-PCR. […] All experiments were performed with 3 biological replicates and the median value of TREM-1 fluorescence was represented by the graph on the bottom.
# Quantitative RT-PCR: Total RNA was extracted from EL4 or RAW264.7 cells using RNeasy Plus Micro Kit (Qiagen) and the RNA was reverse transcribed using the ABI reverse transcription kit (Applied Biosystems/Thermo Fisher Scientific, Waltham MA). Quantitative PCR was performed with a 7900HT Fast Real Time PCR System (Applied Biosystems) using SYBR green (Roche).
# mRNA sequencing analysis: RAW264.7 cells RNA extraction protocol for RNA seq was derived from Qiagen Kit-74106. Total RNA was quantified using the Qubit 2.0 Fluorometer (Invitrogen, Carlsbad, CA) and run on the Agilent 2100 Bioanalyzer (Agilent Technologies, Santa Clara, CA) for quality assessment. RNA samples of good quality with RNA Integrity Number (RIN)>8.0 were further processed. A RNase-free working environment was maintained and RNase-free tips, Eppendorf tubes and plates were utilized for the subsequent steps. Messenger RNA was selectively isolated from total RNA (300 ng input) using poly-T oligos attached to magnetic beads and converted to sequence-ready libraries using the TruSeq stranded mRNA sample prep protocol (Cat. #: RS-122-2101, Illumina, San Diego, CA). The final libraries were validated on the bioanalyzer DNA chips and qPCR quantified using primers that recognize the illumina adaptors. The libraries were then pooled at equimolar ratios, quantified using qPCR and loaded onto the NextSeq 500 flow cell at 1.8 pM final concentration. They were sequenced using the high-output, paired-end, 75-bp chemistry. Demultiplexed and quality filtered raw reads (fastq) generated from the NextSeq 500 were trimmed (adaptor sequences) using Flexbar 2.4 and aligned to the mouse reference database (mm9) using TopHat version 2.0.9 (Trapnell et al., 2009). HTseq-count version 0.6.1 was used to generate gene counts and differential gene expression analysis was performed using Deseq2 (Anders and Huber, 2010).
# TREM-1 [4] = experiment: TREM-1 surface expression by FACS in LPS-stimulated RAW264.7 cells; assay type: cell-based, mouse; conditions: 50 hr incubation
# Method: as §2
# Flow cytometry and antibodies: For the analysis of macrophage activation, RAW264.7 cells (American Type Culture Collection) were pre-incubated with 5 μM 1903 for 18 h then stimulated with 1 μg/mL LPS (Escherichia coli 0127:B8, Sigma-Aldrich (St. Louis, MO)) for 6 h. RAW264.7 cells were stained with APC conjugated anti-TREM-1 antibody (eBioscience). Cell sorting was performed using LSRII (BD Bioscience).
# RORβ = experiment: Gal4-RORβ co-transfection promoter-reporter assay; assay type: cell-based; conditions: Gal4 assay format
# Method: as §1
# LXRα = target: T1, LXRα (Homo sapiens, UniProt Q13133); experiment: Gal4-LXRα co-transfection promoter-reporter assay; assay type: cell-based; conditions: HEK293T cells, read-out: LXR agonist activity EC50
# T1 sequence (Q13133 209-447 limits assumed): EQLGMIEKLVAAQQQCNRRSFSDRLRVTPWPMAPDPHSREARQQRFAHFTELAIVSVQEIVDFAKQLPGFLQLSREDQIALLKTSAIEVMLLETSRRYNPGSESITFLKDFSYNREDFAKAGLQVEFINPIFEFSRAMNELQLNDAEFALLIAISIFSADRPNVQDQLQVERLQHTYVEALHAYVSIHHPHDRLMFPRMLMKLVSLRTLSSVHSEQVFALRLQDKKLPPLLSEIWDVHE
# Source text: FIGS. 1A to 1E: Pan modulator with poly-pharmacology. […] FIG. 1D is a graph showing PPARγ target genes (aP2 and CD36) expression in OP9 cells with and without MDI (IBMX, dexamethasone, insulin) treatment. […] SR1903 is represented as orange sticks while PPARγ, RORγ, and LXRβ are depicted as blue ribbons respectively. Specific residues driving the interaction labelled and shown as sticks as well. […] FIG. 1F are graphs showing RORγ target genes (IL17A and IL17F) expression in EL4 cells.
# as §1
# RORγ = target: T2, RORγ (Homo sapiens, UniProt P51449); experiment: Gal4-RORγ co-transfection promoter-reporter assay; conditions: cell-based promoter-reporter Gal4 assay format, HEK293T cells
# T2 sequence (P51449 269-518 limits assumed): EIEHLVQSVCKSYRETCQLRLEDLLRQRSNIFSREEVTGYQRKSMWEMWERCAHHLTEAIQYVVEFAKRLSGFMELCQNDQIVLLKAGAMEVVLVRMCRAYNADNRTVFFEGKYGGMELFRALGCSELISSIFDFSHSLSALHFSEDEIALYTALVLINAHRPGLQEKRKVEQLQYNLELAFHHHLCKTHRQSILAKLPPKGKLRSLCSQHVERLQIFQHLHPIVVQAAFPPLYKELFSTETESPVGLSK
SMILES,IL-17 and IL-23R expression (TH17 cells),TH17 cell differentiation (TH17 cells),therapeutic effect in CIA mice [1],enlargement of the liver [2],activity on RORα (RORα),IL17F expression (EL4 cells),LPS induction of TREM-1 gene expression (qPCR) (TREM-1 [3]),LPS-induced TREM1 cell surface expression (TREM-1 [4]),activity on RORβ (RORβ),"arthritis clinical score ([2]; Day 34, 20 mg/kg i.p. twice-a-day, vehicle 13.6±2.9)",pEC50 (LXRα),pIC50 (RORγ)
OC(c1ccc(-c2ccc(CN3CCN(Cc4ccncc4)CC3)cc2)c(F)c1)(C(F)(F)F)C(F)(F)F [SR2211],reduced,inhibited,robust therapeutic effect,,,,,,,,,
"O=S(=O)(c1ccccc1)N(CC(F)(F)F)c1ccc(C(O)(C(F)(F)F)C(F)(F)F)cc1 [T0901317, N-(2,2,2-trifluoroethyl)-N-[4-[2,2,2-trifluoro-1-hydroxy-1-(trifluoromethyl)ethyl]phenyl]-benzenesulfonamide, reference compound]",,,,negative effect on liver,,,,,,,,
"O=C(O)Cc1cccc(OCCCN(Cc2cccc(C(F)(F)F)c2Cl)CC(c2ccccc2)c2ccccc2)c1 [GW3965, reference compound]",,,,did not cause enlargement of the liver,lack activity,lacked the ability to repress,significantly repressed,only modestly dampened,lack activity,only very modest effects,6.81,4.37
